The target in one experiment is human insulin receptor (Homo sapiens, UniProt P06213). As to the kind of experiment: Assay (I): insulin receptor binding, SPA microtiterplate antibody capture assay. To be noted: purified recombinant human insulin receptor - exon 11; A14 Tyr[125I]-human insulin tracer; human insulin = 100%. Here is the method: Insulin Receptor Binding of the Acylated, Single-Chain Insulin
Chain of human insulin receptor (P06213 28-746 isoform P06213-2 limits assumed): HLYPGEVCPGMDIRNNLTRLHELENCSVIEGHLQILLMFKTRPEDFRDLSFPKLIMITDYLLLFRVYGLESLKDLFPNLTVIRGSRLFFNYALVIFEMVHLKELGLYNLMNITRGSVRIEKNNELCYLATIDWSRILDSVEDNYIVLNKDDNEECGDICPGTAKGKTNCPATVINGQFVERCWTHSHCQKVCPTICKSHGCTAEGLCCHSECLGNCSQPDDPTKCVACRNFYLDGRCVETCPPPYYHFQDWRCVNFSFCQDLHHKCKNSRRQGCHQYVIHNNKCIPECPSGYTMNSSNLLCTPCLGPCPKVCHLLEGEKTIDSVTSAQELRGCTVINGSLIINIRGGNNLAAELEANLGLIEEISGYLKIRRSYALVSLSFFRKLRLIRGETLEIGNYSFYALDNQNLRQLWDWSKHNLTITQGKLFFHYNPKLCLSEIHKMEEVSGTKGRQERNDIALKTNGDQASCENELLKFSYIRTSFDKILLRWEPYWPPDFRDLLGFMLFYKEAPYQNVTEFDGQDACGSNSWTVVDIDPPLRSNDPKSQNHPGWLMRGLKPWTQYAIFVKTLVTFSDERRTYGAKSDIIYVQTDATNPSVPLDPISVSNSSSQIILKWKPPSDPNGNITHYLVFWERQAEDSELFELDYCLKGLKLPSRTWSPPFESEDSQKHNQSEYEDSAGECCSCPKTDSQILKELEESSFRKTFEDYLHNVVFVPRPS
Chain of human insulin receptor (P06213 763-1382 partner limits assumed): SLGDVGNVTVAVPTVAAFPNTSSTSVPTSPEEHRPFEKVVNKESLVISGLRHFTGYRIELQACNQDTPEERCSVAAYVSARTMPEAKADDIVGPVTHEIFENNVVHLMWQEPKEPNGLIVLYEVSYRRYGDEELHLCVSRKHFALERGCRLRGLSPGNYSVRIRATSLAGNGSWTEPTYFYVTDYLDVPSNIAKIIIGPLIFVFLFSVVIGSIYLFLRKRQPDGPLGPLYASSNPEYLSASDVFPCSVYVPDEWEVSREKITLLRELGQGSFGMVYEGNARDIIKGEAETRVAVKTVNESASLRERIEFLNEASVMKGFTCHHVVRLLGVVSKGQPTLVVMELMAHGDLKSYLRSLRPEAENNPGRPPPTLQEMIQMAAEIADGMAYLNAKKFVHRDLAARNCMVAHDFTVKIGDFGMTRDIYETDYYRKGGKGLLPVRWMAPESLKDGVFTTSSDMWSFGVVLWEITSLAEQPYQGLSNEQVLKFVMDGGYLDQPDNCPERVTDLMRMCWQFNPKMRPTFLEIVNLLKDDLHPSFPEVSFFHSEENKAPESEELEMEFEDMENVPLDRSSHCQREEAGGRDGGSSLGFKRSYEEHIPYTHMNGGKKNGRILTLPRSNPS
The affinity of the acylated, single-chain insulins for the human insulin receptor can be determined by a SPA assay (Scintillation Proximity Assay) microtiterplate antibody capture assay. SPA-PVT antibody-binding beads, anti-mouse reagent (Amersham Biosciences, Cat No. PRNQ0017) are mixed with 25 ml of binding buffer (100 mM HEPES pH 7.8; 100 mM sodium chloride, 10 mM MgSO4, 0.025% Tween-20). Reagent mix for a single Packard Optiplate (Packard No. 6005190) is composed of 2.4 μl of a 1:5000 diluted purified recombinant human insulin receptor—exon 11, an amount of a stock solution of A14 Tyr[125I]-human insulin corresponding to 5000 cpm per 100 μl of reagent mix, 12 μl of a 1:1000 dilution of F12 antibody, 3 ml of SPA-beads and binding buffer to a total of 12 ml. A total of 100 μl is then added and a dilution series is made from appropriate samples. To the dilution series is then added 100 μl of reagent mix and the samples are incubated for 16 hours while gently shaken. The phases are then separated by centrifugation for 1 min and the plates counted in a Topcounter. The binding data are fitted using the nonlinear regression algorithm in the GraphPad Prism 2.01 (GraphPad Software, San Diego, Calif.).
Chain of purified recombinant human insulin receptor-exon 11 (human) (P06213 other isoform, or with tags, fused parts or gaps limits assumed, form in doubt): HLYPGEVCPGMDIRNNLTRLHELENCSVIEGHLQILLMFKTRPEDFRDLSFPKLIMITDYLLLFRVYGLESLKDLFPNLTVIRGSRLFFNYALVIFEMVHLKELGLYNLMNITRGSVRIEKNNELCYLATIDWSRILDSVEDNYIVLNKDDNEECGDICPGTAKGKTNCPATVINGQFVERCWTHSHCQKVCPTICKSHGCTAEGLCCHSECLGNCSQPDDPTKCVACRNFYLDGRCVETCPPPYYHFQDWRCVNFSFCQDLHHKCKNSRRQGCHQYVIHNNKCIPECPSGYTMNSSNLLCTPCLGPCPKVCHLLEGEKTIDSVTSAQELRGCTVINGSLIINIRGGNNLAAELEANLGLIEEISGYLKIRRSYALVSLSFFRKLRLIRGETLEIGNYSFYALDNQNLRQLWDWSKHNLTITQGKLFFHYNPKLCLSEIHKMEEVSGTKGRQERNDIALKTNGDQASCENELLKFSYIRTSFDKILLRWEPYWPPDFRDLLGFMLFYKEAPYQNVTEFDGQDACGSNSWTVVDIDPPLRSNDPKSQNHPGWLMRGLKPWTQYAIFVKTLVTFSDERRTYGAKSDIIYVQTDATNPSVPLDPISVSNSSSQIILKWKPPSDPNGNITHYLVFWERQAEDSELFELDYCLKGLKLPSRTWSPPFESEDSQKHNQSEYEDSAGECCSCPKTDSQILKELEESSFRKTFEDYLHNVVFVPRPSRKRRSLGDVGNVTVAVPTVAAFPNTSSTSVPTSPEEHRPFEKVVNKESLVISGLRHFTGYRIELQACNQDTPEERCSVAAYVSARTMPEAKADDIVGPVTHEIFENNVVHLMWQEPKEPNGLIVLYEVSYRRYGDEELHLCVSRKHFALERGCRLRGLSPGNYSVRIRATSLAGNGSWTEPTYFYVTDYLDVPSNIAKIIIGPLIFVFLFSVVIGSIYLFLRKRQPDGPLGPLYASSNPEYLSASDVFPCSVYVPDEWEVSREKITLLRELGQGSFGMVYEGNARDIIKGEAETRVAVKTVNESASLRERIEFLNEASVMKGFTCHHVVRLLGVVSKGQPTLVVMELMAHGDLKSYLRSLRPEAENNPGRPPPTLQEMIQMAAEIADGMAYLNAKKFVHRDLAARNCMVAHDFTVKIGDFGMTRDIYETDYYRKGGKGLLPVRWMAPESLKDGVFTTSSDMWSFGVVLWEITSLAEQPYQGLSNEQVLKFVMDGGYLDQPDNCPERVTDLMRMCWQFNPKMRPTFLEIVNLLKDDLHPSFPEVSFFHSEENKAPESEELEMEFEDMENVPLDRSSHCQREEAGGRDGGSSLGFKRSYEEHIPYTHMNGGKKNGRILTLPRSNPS
Turning to “B(1-29)-B29A-VGLSSGQ-A(1-21)-A8K(N(eps)hexadecandioyl-gGlu)-A18Q Human Insulin [Example 6]”, the “insulin receptor binding relative to that of human insulin” value stood at 73%.

Take “B(1-29)-B29A-VGLSSGQ-A(1-21)-A15K(N(eps)-hexadecandioyl-g-L-Glu)-A18Q Human Insulin [Example 9]”: the “insulin receptor binding relative to that of human insulin” value is reported as 17.4%.

For the substance “B(1-29)-B29A-VGLSSGQ-A(1-21)-A18K(N(eps)hexadecandioyl-gGlu) Human Insulin [Example 1]”, the “insulin receptor binding relative to that of human insulin” value is given as 25%.

Regarding “B(1-29)-B29A-VGLSSGQ-A(1-21)-A18K(N(eps)myristoyl) Human Insulin [Example 3]”, the “insulin receptor binding relative to that of human insulin” value worked out at 27%.

Turning to “B(1-29)-B29A-VGLSSGQ-A(1-22)-A18Q, A22K(N(eps)hexadecandioyl-gGlu) Human Insulin [Example 4]”, the “insulin receptor binding relative to that of human insulin” value stood at 44%.

Take “B(1-29)-B29A-VGLSSGQ-A(1-22)-A18Q, A22K(N(eps)myristoyl) Human Insulin [Example 2]”: the “insulin receptor binding relative to that of human insulin” value is given as 62%.

Take “B(1-29)-B29A-VGLSSGQ-A(1-22)-A18Q, A22K(N(eps)octadecandioyl) Human Insulin [Example 5]”: the “insulin receptor binding relative to that of human insulin” value was found to be 24%.

“B(1-29)-B29A-VGLSSGQ-A(1-22)-A18Q-A22K((eps)heptadecandioyl-g-Glu) Human Insulin [Example 10]”: the “insulin receptor binding relative to that of human insulin” value worked out at 43%.

Consider “B(1-29)-B29H-TGLGSGR-A(1-21)-A18K(N-eps-hexadecandioyl-g-L-Glu)-A21 G Human insulin [Example 7]”, for which the “insulin receptor binding relative to that of human insulin” value is given as 45.7%.

In the case of “B(1-29)-B29Q-TGLGSCR-A(1-22)-A18Q, A21 G-A22K(N (eps)hexadecand ioyl-g-LGlu) Human Insulin [Example 8]”, the “insulin receptor binding relative to that of human insulin” value was 112.8%.

Another experiment concerns the target purified recombinant human insulin receptor-exon 11 (human) (UniProt P06213). As to the kind of experiment: assay (I): SPA, displacement of A14 Tyr[125I]-human insulin from recombinant human insulin receptor.
Settings: not given
Turning to “B(1-29)-B29A-VGLSSGQ-A(1-21)-A8K(N(eps)hexadecandioyl-gGlu)-A18Q Human Insulin (from UniProt P01308 25-53; P01308 90-110) (ligand)”, the insulin receptor binding relative to that of human insulin is 73%.

With “B(1-29)-B29A-VGLSSGQ-A(1-21)-A15K(N(eps)-hexadecandioyl-g-L-Glu)-A18Q Human Insulin (from UniProt P01308 25-53; P01308 90-110) (ligand)”, the insulin receptor binding relative to that of human insulin is 17.4%.

Take “B(1-29)-B29A-VGLSSGQ-A(1-21)-A18K(N(eps)hexadecandioyl-gGlu) Human Insulin (from UniProt P01308 25-53; P01308 90-110) (ligand)”: the insulin receptor binding relative to that of human insulin was 25%.

Consider “B(1-29)-B29A-VGLSSGQ-A(1-21)-A18K(N(eps)myristoyl) Human Insulin (from UniProt P01308 25-53; P01308 90-110) (ligand)”, for which the insulin receptor binding relative to that of human insulin came to 27%.

On to “B(1-29)-B29A-VGLSSGQ-A(1-22)-A18Q, A22K(N(eps)hexadecandioyl-gGlu) Human Insulin (from UniProt P01308 25-53; P01308 90-110) (ligand)”, for which the insulin receptor binding relative to that of human insulin turned out to be 44%.

Turning to “B(1-29)-B29A-VGLSSGQ-A(1-22)-A18Q, A22K(N(eps)myristoyl) Human Insulin (from UniProt P01308 25-53; P01308 90-110) (ligand)”, the insulin receptor binding relative to that of human insulin was 62%.

With “B(1-29)-B29A-VGLSSGQ-A(1-22)-A18Q, A22K(N(eps)octadecandioyl) Human Insulin (from UniProt P01308 25-53; P01308 90-110) (ligand)”, the insulin receptor binding relative to that of human insulin was determined as 24%.

For the substance “B(1-29)-B29A-VGLSSGQ-A(1-22)-A18Q-A22K((eps)heptadecandioyl-g-Glu) Human Insulin (from UniProt P01308 25-53; P01308 90-110) (ligand)”, the insulin receptor binding relative to that of human insulin turned out to be 43%.

Turning to “B(1-29)-B29H-TGLGSGR-A(1-21)-A18K(N-eps-hexadecandioyl-g-L-Glu)-A21 G Human insulin (from UniProt P01308 25-53; P01308 90-110) (ligand)”, the insulin receptor binding relative to that of human insulin was 45.7%.

In the case of “B(1-29)-B29Q-TGLGSCR-A(1-22)-A18Q, A21 G-A22K(N (eps)hexadecand ioyl-g-LGlu) Human Insulin (from UniProt P01308 25-53; P01308 90-110) (ligand)”, the insulin receptor binding relative to that of human insulin came to 113%.

Source of the values: patent US20090099065A1, “Acylated Single Chain Insulin” (Novo Nordisk A/S, priority 2006, published 2009).
